Source: US9629828B2, “Methods of treating traveler's diarrhea and hepatic encephalopathy” (priority 2008, dated 2017)
“And” between values parts separate entries of the source, which are not always exact repeats. Identical values can stand only once.

Test system: subjects in remission from hepatic encephalopathy (HE)
Assay: First study: Conn score (time to any increase, change from baseline)
Type: in vivo, human
Conditions: for Event probability (increase in Conn score during the treatment interval) / Probability of no increase in Conn score: Kaplan-Meier; for Event probability (increase in Conn score during the treatment interval) / Probability of no increase in Conn score / Cumulative number of events (increase in Conn score) / Number of events (increase in Conn score): ITT, N = 140
Text: The scale used in the Conn scoring system is provided below. • Grade 0=No personality or behavioral abnormality detected • Grade 1=Trivial lack of awareness, euphoria or anxiety; shortened attention span; impairment of addition or subtraction • Grade 2=Lethargy; disorientation for time; obvious personality change; inappropriate behavior • Grade 3=Somnolence to semi-stupor, responsive to stimuli; confused; gross disorientation; bizarre behavior • Grade 4=Coma; unable to test mental state
Change in mental status was measured by the Conn score (also known as the West Haven score). The Conn score has been widely used as a measure of mental state in HE studies and is based on the criteria of Parsons-Smith as modified by Conn. The scale used in the Conn scoring system is described above.
Subjects who discontinued prior to experiencing an increase in Conn score and prior to completion of the 6-month treatment period were censored at the time of discontinuation.

[1] = treatment interval 0 to <28 days
[2] = treatment interval 28 to <56 days
[3] = treatment interval 56 to <84 days
[4] = treatment interval 84 to <140 days
[5] = treatment interval 140 to <168 days

CO[C@H]1/C=C/O[C@@]2(C)Oc3c(C)c(O)c4c(O)c(c5c(nc6cc(C)ccn65)c4c3C2=O)NC(=O)/C(C)=C\C=C\[C@H](C)[C@H](O)[C@@H](C)[C@@H](O)[C@@H](C)[C@H](OC(C)=O)[C@@H]1C [rifaximin, (2S,16Z,18E,20S,21S,22R,23R,24R,25 S,26S,27S,28E)-5,6,21,23,25-pentahydroxy-27-methoxy-2,4,11,16,20,22,24,26-octamethyl-2,7-(epoxypentadeca-[1,11,13]trienimino)benzofuro[4,5-e]pyrido[1,2-á]-benzimidazole-1,15(2H)-dione,25-acetate]
Event probability (increase in Conn score during the treatment interval) [1]: 0.012
Probability of no increase in Conn score [1]: 1.0000
Event probability (increase in Conn score during the treatment interval) [2]: 0.04
Probability of no increase in Conn score [2]: 0.8777
Event probability (increase in Conn score during the treatment interval) [3]: 0.08
Probability of no increase in Conn score [3]: 0.8407
Event probability (increase in Conn score during the treatment interval) [4]: 0.05
Probability of no increase in Conn score [4]: 0.7713
Event probability (increase in Conn score during the treatment interval) [5]: 0
Probability of no increase in Conn score [5]: 0.7302
Event probability (increase in Conn score during the treatment interval) (treatment interval ≧168 days): 0.03
Probability of no increase in Conn score (treatment interval ≧168 days): 0.7302
Survival (any increase in Conn score, days r10-r15 as E1001): 1.0000 and 0.8777 and 0.8407 and 0.7713 and 0.7302
subjects with Conn score changes of −1 or no change (baseline to end of treatment): 77.1%
prevention of worsening of Conn score, times versus placebo (in vivo): 2.46 times
reduction in risk of first worsening in Conn Score (in vivo): 54%
subjects with increases in Conn score (in vivo): 37 of 140
time to first increase in Conn scores vs placebo (FIG. 4) (in vivo): increased time to the first increase in Conn scores
Cumulative number of events (increase in Conn score) [1]: 17
Number of events (increase in Conn score) [1]: 17
Cumulative number of events (increase in Conn score) [2]: 22
Number of events (increase in Conn score) [2]: 5
Cumulative number of events (increase in Conn score) [3]: 31
Number of events (increase in Conn score) [3]: 9
Cumulative number of events (increase in Conn score) [4]: 36
Number of events (increase in Conn score) [4]: 5
Cumulative number of events (increase in Conn score) [5]: 36
Number of events (increase in Conn score) [5]: 0
Cumulative number of events (increase in Conn score) (treatment interval ≧168 days): 37
Number of events (increase in Conn score) (treatment interval ≧168 days): 1
